Assay results reported in ChEMBL document CHEMBL5131492, “Harringtonine Ester Derivatives with Enhanced Antiproliferative Activities against HL-60 and HeLa Cells” (J Nat Prod, 2022).

What was measured:
[1] = test system: HL-60; assay: Antiproliferative activity against human HL-60 cells assessed as inhibition of cell growth measured after 68 hrs by MTS assay; assay type: functional, cell-based; details: HL-60, 68 h
[2] = test system: HeLa; assay: Antiproliferative activity against human HeLa cells assessed as inhibition of cell growth measured after 68 hrs by MTS assay; assay type: functional, cell-based

IC50 [1] [nM] | IC50 [2] [nM] | SMILES
> 100000 | > 100000 | COC1=C[C@]23CCCN2CCc2cc4c(cc2[C@@H]3[C@@H]1OC(=O)[C@@](O)(CCC(C)(C)O)CC(=O)O)OCO4
119 | 23800 | COC1=C[C@]23CCCN2CCc2cc4c(cc2[C@@H]3[C@@H]1OC(=O)[C@@](O)(CCC(C)(C)O)CC(=O)OCC(C)C)OCO4
22.7 | 6000 | CCCCCOC(=O)C[C@](O)(CCC(C)(C)O)C(=O)O[C@@H]1C(OC)=C[C@]23CCCN2CCc2cc4c(cc2[C@H]13)OCO4
11.8 | 2000 | CCCCCCCCOC(=O)C[C@](O)(CCC(C)(C)O)C(=O)O[C@@H]1C(OC)=C[C@]23CCCN2CCc2cc4c(cc2[C@H]13)OCO4
583 | 60600 | COC1=C[C@]23CCCN2CCc2cc4c(cc2[C@@H]3[C@@H]1OC(=O)[C@@](O)(CCC(C)(C)O)CC(=O)OC(C)C)OCO4
42.4 | 10800 | CCCCOC(=O)C[C@](O)(CCC(C)(C)O)C(=O)O[C@@H]1C(OC)=C[C@]23CCCN2CCc2cc4c(cc2[C@H]13)OCO4
9.4 | 400 | CCCCCCCOC(=O)C[C@](O)(CCC(C)(C)O)C(=O)O[C@@H]1C(OC)=C[C@]23CCCN2CCc2cc4c(cc2[C@H]13)OCO4
186 | 24200 | CCOC(=O)C[C@](O)(CCC(C)(C)O)C(=O)O[C@@H]1C(OC)=C[C@]23CCCN2CCc2cc4c(cc2[C@H]13)OCO4
9.6 | 1900 | CCCCCCOC(=O)C[C@](O)(CCC(C)(C)O)C(=O)O[C@@H]1C(OC)=C[C@]23CCCN2CCc2cc4c(cc2[C@H]13)OCO4
6200 | > 100000 | COC1=C[C@]23CCCN2CCc2cc4c(cc2[C@@H]3[C@@H]1OC(=O)[C@@](O)(CCC(C)(C)O)CC(=O)OC(C)(C)C)OCO4
104 | 15800 | CCCOC(=O)C[C@](O)(CCC(C)(C)O)C(=O)O[C@@H]1C(OC)=C[C@]23CCCN2CCc2cc4c(cc2[C@H]13)OCO4
499 | 97900 | CCC(C)OC(=O)C[C@](O)(CCC(C)(C)O)C(=O)O[C@@H]1C(OC)=C[C@]23CCCN2CCc2cc4c(cc2[C@H]13)OCO4 (mixture of isomers)

SMILES | IC50 [1] [nM] | IC50 [2] [nM]
COC(=O)C[C@](O)(CCC(C)(C)O)C(=O)O[C@@H]1C(OC)=C[C@]23CCCN2CCc2cc4c(cc2[C@H]13)OCO4 [HARRINGTONINE] | 50.5 | 4000
COC(=O)C[C@](O)(CCCC(C)(C)O)C(=O)O[C@@H]1C(OC)=C[C@]23CCCN2CCc2cc4c(cc2[C@H]13)OCO4 [OMACETAXINE MEPESUCCINATE] | – | 1700
